{
  "source": "patent US11318113B2",
  "about": "“Compounds for the treatment of diseases linked to mitochondrial reactive oxygen species (ROS) production” (OP2 DRUGS, priority 2015, dated 2022)",
  "key": {"[1]": {"tested_on": "isolated pancreatic islets from mice", "assay": "Glucose-stimulated insulin secretion (GSIS) in isolated pancreatic islets", "assay_type": "cell-based, mouse", "conditions": "AOL 10 and 20 μM, 1 hour", "method": "Pancreatic islets were isolated using the collagenase digestion method. Briefly, pancreas was inflated with Hanks solution containing 0.33 mg/mL of collagenase (Sigma-Aldrich), 5.6 mM glucose and 1% bovine serum albumin, pH 7.35, removed and kept at 37° C. for 6-9 minutes. After tissue digestion and exocrine removal by three consecutive washes, the islets were manually collected, under a binocular magnifier. Islets were left recovering from digestion by culturing for 20-24 hours in RPMI-1640 medium containing 11 mM glucose (Invitrogen, Calif., USA) and supplemented with 2 mM glutamine, 200 IU/mL penicillin, 200 μg/mL streptomycin and 8% fetal bovine serum stripped with charcoal-dextran (Invitrogen).\nFor each static GSIS experiment, islets from two mice were first incubated for 2 hours at 37° C. in 3 mL Krebs-bicarbonate buffer solution (in mM): […], 2 HEPES and 3 glucose, equilibrated with a mixture of 95% O2:5% CO2, pH 7.4. […] Insulin secretion in each well was calculated as ng of insulin per islet and per hour of incubation, and then expressed as percentage of insulin secretion in 11 mM glucose vehicle group, which was considered 100%."}, "[2]": {"tested_on": "TH-positive neurons in the substantia nigra of MPTP-treated mice", "assay": "Sub-chronic MPTP mouse model of Parkinson's disease, TH-positive neuron count", "assay_type": "in vivo", "conditions": "5 mg/kg ip, 11 consecutive days; p<0.01", "method": "In this study, the potential neuroprotective effects of AOL were assessed by counting the number of tyrosine hydroxylase (TH)-positive neurons in the substantia nigra (SN) in the sub-chronic 1-methyl-4-phenyl-1,2,3,6-tetrahydropyridine (MPTP) mouse model of Parkinson's disease. Mice were treated with AOL (5 mg/kg; ip) or vehicle for 11 consecutive days. MPTP (20 mg/kg; ip) or saline was administered on treatment days 4-8. All mice were killed on day 12 following final administration of treatment.\nFor vehicle conditions, the test item was dissolved in 0.5% DMSO/0.95% Tween 20 in saline while AOL was administered intraperitoneally (i.p.) at the dose of 5 mg/kg. […]\nUnbiased stereological analysis was used to estimate the number of TH-immunopositive (TH+) neurons (Mercator, Explora Nova, La Rochelle, France). The boundaries of the SN were determined by examining the size and shape of the different TH+ neuronal groups. The volume was calculated by using the formula: V=ΣS td; where ΣS is the sum of surface areas, t is the average section thickness and d is the number of slices between two consecutive sections measured. […] The following formula was used to estimate the number of TH+ neurons: N=V(SN) (ΣQ−/ΣV(dis)); where N is the estimation of cell number, V is the volume of the SN, ΣQ− is the number of cells counted in the dissectors, and ΣV(dis) is the total volume of all the dissectors. […]"}},
  "data": [
    {"compound": "COc1ccc(-c2cc(=S)ss2)cc1", "note": "[AOL, 5-(4-methoxyphenyl)-3H-1,2-dithiole-3-thione]", "values": [
      {"measurement": "GSIS increase as compared to the 11 mM glucose vehicle group", "setting": "[1]", "result": "65-75%"},
      {"measurement": "increase in number of TH+ cells in the SN compared to vehicle in MPTP-treated mice", "setting": "[2]", "result": 44, "unit": "%"}
    ]}
  ]
}
